Values of other authors as cited in patent US6534473B1, “Process for the manufacture of tablet detergent compositions” (Unilever Patent Holdings BV, priority 1998, dated 2003).
Read-outs that look alike come from different tables or passages of the source.

[1] = at 20° C., other common materials, by contrast

Row | solubility in water (at 20° C.) | Water Solubility (grams of solid to form a saturated solution in 100 grams of water at 20° C., highly water-soluble materials) | SMILES | Water Solubility [1]
1 | exceeding 100 gms per 100 ml water | >100 g/100 g | NC(N)=O [Urea] | 
2 |  |  | O=P(O)(O)OP(=O)(O)OP(=O)(O)O [Sodium tripolyphosphate anhydrous] | 15 g/100 g
3 |  |  | O=BO[O-].[Na+] [Sodium perborate anhydrous] | 3.7 g/100 g
